What was measured:
septoria leaf blotch = assay: Test Example 10: control test of septoria leaf blotch of wheat, cup in greenhouse, inoculated, variety ARKEOS (Tables 15 to 19); type: in vivo, Septoria tritici
Procedure, shortened: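 ARKEOS wheat seed treated with compound suspension per 1 kg seed, air-dried, sown 5 per cup in greenhouse; comparative treatments sprayed on seedlings at 1000 L/ha on day 14. Conidiospores sprayed day 14; second-leaf lesion area scored ~35 days after seeding, expressed as degree of disease occurrence.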

powdery mildew [1] = assay: Test Example 9: control test of wheat powdery mildew, cup in greenhouse, inoculated, Norin No. 61 (Tables 10 to 14); type: in vivo, Blumeria graminis; set-up: key to Degree of Disease Occurrence: Σ(index×leaves)/(4×leaves investigated)×100; 0 = no disease, 100 = max
Procedure, shortened: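 Norin No. 61 wheat seed was treated with compound suspension (DMSO solution or 10% wettable powder), air-dried and grown in river sand in a greenhouse; comparators were sprayed at 1000 L/ha on day 14. Conidia were dusted on at day 14, and first-leaf lesion area was scored at day 21 as degree of disease occurrence.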

powdery mildew [2] = assay: Test Example 4: control test of wheat powdery mildew, cup in greenhouse, inoculated; type: in vivo, Blumeria graminis; details: for Degree of Disease Occurrence: 22 days after seeding
Description: Degree of Disease Occurrence=Σ(Index×Number of Leaves of Index)/(4×Number of Investigated Leaves)×100 (1)
(§1) Seed having a mass of 1 kg of wheat (variety: Norin No. 61) was mixed into 100 ml of suspension water containing 0.5 g of the above compound (6) or compound (3) (synthesis was performed in accordance with a known method, formulated 10% wettable powder was used) and air-dried, and then, 12 seeds were sown in a plastic cup having a diameter of 6 cm containing river sand and managed in a greenhouse. The number of emerged seeds was investigated nine days after seeding, and an emergence rate was calculated (Examples 10 and 11). In Comparative Example 11 and Comparative Example 12, 20 ml of suspension water of an active ingredient, which had been adjusted to have a concentration shown in Table 5, was sprayed in a frame of 45 cm×45 cm in which a pot of wheat seedlings was placed (corresponding to 1000 L/ha) 15 days after seeding. On day 15 after seeding, conidiospores of powdery mildew were sifted over leaves of wheat seedlings and inoculated onto the leaves (after the sprayed liquid was dried in the case of Comparative Examples), a lesion area ratio of powdery mildew in a first leaf was investigated 22 days after seeding according to the criteria in Table 1, and the degree of disease occurrence was calculated by the above calculation formula (1).

wheat (variety: Apache) = assay: Test Example 8: emergence rate of wheat seed; type: in vivo
Description: Seed having a mass of 1 kg of wheat (variety: Apache) was mixed into 100 ml of suspension water containing from 0.5 g or 5 g of the 3,4-dichloroisothiazole derivative of the compound (6) or (3) (synthesis was performed in accordance with a known method, formulated 10% wettable powder was used) and air-dried, and then, 12 seeds were sown in a plastic cup having a diameter of 6 cm containing river sand and managed in a greenhouse. The number of emerged seeds was investigated 12 days after seeding, and an emergence rate was calculated. In Comparative Examples 19 to 22, 20 ml of suspension water of an active ingredient, which had been adjusted to have a concentration shown in Table 9, was sprayed in a frame of 45 cm×45 cm in which a pot of wheat seedlings was placed (corresponding to 1000 L/ha) 12 days after seeding. A spore suspension in which conidiospores of septoria leaf blotch are suspended were sprayed and inoculated on leaves of wheat seedlings 12 days after seeding (after the sprayed liquid was dried in the case of Comparative Examples), a lesion area ratio of septoria leaf blotch in a second leaf was investigated 31 days after seeding according to the criteria in Table 1, and the degree of disease occurrence was calculated by the above calculation formula (1).

[3] = tested on: wheat (variety: Norin No. 61); assay: Test Example 4: emergence rate of wheat seed; type: in vivo
Description: as §1

[4] = Table 16, Foliage Treatment, spray 500 ppm suspension water (corresponding to 500 g/ha) 14 days after seeding, untreated 57.1
[5] = Table 16, Foliage Treatment, spray 500 ppm suspension water (corresponding to 500 g/ha) 14 days after seeding, untreated 93.3
[6] = Table 16, Seed Treatment, 5 g/Seed 1 kg (corresponding to 500 g/ha), untreated 57.1
[7] = Table 16, Seed Treatment, 5 g/Seed 1 kg (corresponding to 500 g/ha), untreated 93.3
[8] = Table 11 run (different day), Foliage Treatment, spray 5 ppm (5 g/ha)
[9] = Table 11 run (different day), Foliage Treatment, spray 50 ppm (50 g/ha)
[10] = Table 11 run (different day), Seed Treatment 0.05 g/Seed 1 kg (5 g/ha)
[11] = Table 11 run (different day), Seed Treatment 0.5 g/Seed 1 kg (50 g/ha)
[12] = Table 12 run (different day), Foliage Treatment, spray 50 ppm (50 g/ha)
[13] = Table 12 run (different day), Seed Treatment 0.5 g/Seed 1 kg (50 g/ha)
[14] = Table 15, Foliage Treatment, spray 50 ppm (50 g/ha) day 14, second leaf, approximately 35 days after seeding
[15] = Table 15, Foliage Treatment, spray 500 ppm (500 g/ha) day 14, second leaf, approximately 35 days after seeding
[16] = Table 15, Seed Treatment 0.5 g/Seed 1 kg (50 g/ha), second leaf, approximately 35 days after seeding
[17] = Table 15, Seed Treatment 5 g/Seed 1 kg (500 g/ha), second leaf, approximately 35 days after seeding
[18] = Table 16, Foliage Treatment, spray 10 ppm suspension water (corresponding to 10 g/ha) 14 days after seeding, untreated 57.1
[19] = Table 16, Foliage Treatment, spray 10 ppm suspension water (corresponding to 10 g/ha) 14 days after seeding, untreated 93.3
[20] = Table 16, Seed Treatment, 0.1 g/Seed 1 kg (corresponding to 10 g/ha), untreated 57.1
[21] = Table 16, Seed Treatment, 0.1 g/Seed 1 kg (corresponding to 10 g/ha), untreated 93.3
[22] = Table 10 run, Foliage Treatment, spray 5 ppm (5 g/ha) day 14, first leaf, 21 days after seeding
[23] = Table 10 run, Foliage Treatment, spray 50 ppm (50 g/ha) day 14, first leaf, 21 days after seeding
[24] = Table 10 run, Seed Treatment 0.05 g/Seed 1 kg (5 g/ha), first leaf, 21 days after seeding
[25] = Table 10 run, Seed Treatment 0.5 g/Seed 1 kg (50 g/ha), first leaf, 21 days after seeding
[26] = Foliage Spray 50 ppm suspension water (50 g/ha) day 15, first leaf
[27] = Seed Treatment 0.5 g/Seed 1 kg (50 g/ha), inoculated day 15, first leaf
[28] = Foliage Treatment group, spray 50 ppm (50 g/ha) 12 days after seeding, emergence counted 12 days after seeding
[29] = Foliage Treatment group, spray 500 ppm (500 g/ha) 12 days after seeding, emergence counted 12 days after seeding
[30] = Seed Treatment 0.5 g/Seed 1 kg, 12 days after seeding
[31] = Seed Treatment 5 g/Seed 1 kg (500 g/ha), 12 days after seeding
[32] = Foliage Spray group, 50 ppm (50 g/ha) 15 days after seeding, emergence counted nine days after seeding
[33] = Seed Treatment 0.5 g/Seed 1 kg (50 g/ha), nine days after seeding

Compound | Degree of Disease Occurrence (septoria leaf blotch; [4]) | Disease Leaf Rate (%) (septoria leaf blotch; [5]) | Degree of Disease Occurrence (septoria leaf blotch; [6]) | Disease Leaf Rate (%) (septoria leaf blotch; [7]) | Degree of Disease Occurrence (septoria leaf blotch; [14]) | Disease Leaf Rate (%) (septoria leaf blotch; [14]) | Degree of Disease Occurrence (septoria leaf blotch; [15]) | Disease Leaf Rate (%) (septoria leaf blotch; [15]) | Degree of Disease Occurrence (septoria leaf blotch; [16]) | Disease Leaf Rate (%) (septoria leaf blotch; [16]) | Degree of Disease Occurrence (septoria leaf blotch; [17]) | Disease Leaf Rate (%) (septoria leaf blotch; [17]) | Degree of Disease Occurrence (septoria leaf blotch; [18]) | Disease Leaf Rate (%) (septoria leaf blotch; [19]) | Degree of Disease Occurrence (septoria leaf blotch; [20]) | Disease Leaf Rate (%) (septoria leaf blotch; [21]) | Degree of Disease Occurrence (powdery mildew [1]; [22]) | Disease Leaf Rate (%) (powdery mildew [1]; [22]) | Degree of Disease Occurrence (powdery mildew [1]; [23]) | Disease Leaf Rate (%) (powdery mildew [1]; [23]) | further results
O=S1(=O)N=C(OCc2snc(Cl)c2Cl)c2ccccc21 [Compound (1), Dichlobentiazox] | 71.9 | 100.0% | 45.7 | 95.8% |  |  |  |  |  |  |  |  |  |  |  |  |  |  |  |  | Degree of Disease Occurrence (powdery mildew [1]; [8]): 95.3; Disease Leaf Rate (%) (powdery mildew [1]; [8]): 100%; Degree of Disease Occurrence (powdery mildew [1]; [9]): 89.1; Disease Leaf Rate (%) (powdery mildew [1]; [9]): 100%; Degree of Disease Occurrence (powdery mildew [1]; [10]): 56.4; Disease Leaf Rate (%) (powdery mildew [1]; [10]): 93.8%; Degree of Disease Occurrence (powdery mildew [1]; [11]): 22.7; Disease Leaf Rate (%) (powdery mildew [1]; [11]): 71.9%; Degree of Disease Occurrence (powdery mildew [1]; [12]): 21.7; Disease Leaf Rate (%) (powdery mildew [1]; [12]): 46.7%; Degree of Disease Occurrence (powdery mildew [1]; [13]): 0.0; Disease Leaf Rate (%) (powdery mildew [1]; [13]): 0.0%
OCc1snc(Cl)c1Cl [Compound (3)] | 77.4 | 100.0% | 40.4 | 85.7% | 29.3 | 97.0% | 37.5 | 91.7% | 22.2 | 77.8% | 8.2 | 32.8% | 62.5 | 100.0% | 40.6 | 96.9% | 63.5 | 100.0% | 56.3 | 100.0% | Degree of Disease Occurrence (powdery mildew [1]; [24]): 45.2; Disease Leaf Rate (%) (powdery mildew [1]; [24]): 100.0%; Degree of Disease Occurrence (powdery mildew [1]; [25]): 14.8; Disease Leaf Rate (%) (powdery mildew [1]; [25]): 59.4%; Degree of Disease Occurrence (powdery mildew [2]; [26]): 62.1; Degree of Disease Occurrence (powdery mildew [2]; [27]): 17.0; disease occurrence of powdery mildew, seed treatment compared with spraying on foliage during a growing period (powdery mildew [2]): suppressed lower; Emergence Rate (%) (wheat (variety: Apache); [28]): 97.2%; Emergence Rate (%) (wheat (variety: Apache); [29]): 97.2%; Emergence Rate (%) (wheat (variety: Apache); [30]): 97.2%; Emergence Rate (%) (wheat (variety: Apache); [31]): 86.1%; Emergence Rate (%) [3, 32]: 97.2%; Emergence Rate (%) [3, 33]: 97.2%
O=C(O)c1snc(Cl)c1Cl [Compound (6)] | 86.2 | 95.2% | 41.3 | 95.0% | 29.5 | 88.9% | 48.5 | 100.0% | 16.1 | 58.8% | 4.2 | 16.9% | 53.3 | 100.0% | 34.7 | 84.4% | 56.3 | 100.0% | 40.6 | 87.5% | Degree of Disease Occurrence (powdery mildew [1]; [24]): 48.5; Disease Leaf Rate (%) (powdery mildew [1]; [24]): 93.8%; Degree of Disease Occurrence (powdery mildew [1]; [25]): 28.1; Disease Leaf Rate (%) (powdery mildew [1]; [25]): 87.1%; Degree of Disease Occurrence (powdery mildew [2]; [26]): 22.2; Degree of Disease Occurrence (powdery mildew [2]; [27]): 16.3; disease occurrence of powdery mildew, seed treatment compared with spraying on foliage during a growing period (powdery mildew [2]): suppressed lower; Emergence Rate (%) (wheat (variety: Apache); [28]): 97.2%; Emergence Rate (%) (wheat (variety: Apache); [29]): 94.4%; Emergence Rate (%) (wheat (variety: Apache); [30]): 88.9%; Emergence Rate (%) (wheat (variety: Apache); [31]): 88.9%; Emergence Rate (%) [3, 32]: 100%; Emergence Rate (%) [3, 33]: 97.2%

Source: patent publication US20220000117A1, “METHOD FOR CONTROLLING DISEASES IN SMALL GRAIN CEREALS, SEED OF SMALL GRAIN CEREALS, AND METHOD FOR SUPPRESSING LODGING DAMAGE IN SMALL GRAIN CEREALS” (KUMIAI CHEMICAL INDUSTRY CO., LTD., priority 2019, published 2022)
